Source: patent US20170269060A1, “Assays and Compounds to Treat Kidney Diseases” (Rush University Medical Center, priority 2014, published 2017)

Tests used:
human β1 integrin = target: T1, human β1 integrin (Homo sapiens, UniProt P05556); test: Active β1 integrin (antibody 12G10) in PAN-treated human podocytes; format: cell-based; conditions: PAN treatment (FIG. 9D)
T1 construct: endogenous in cells; host or cells: conditionally immortalized human podocytes (Saleem et al. 2002)
Text: FIG. 9A-9E. An An β1-integrin agonist pyrintegrin (pyr) protects podocytes from damage. (A) The published chemical structure of pyr. (Xu et al. PNAS, 2010.) (B-D) Pyr protects podocytes from PAN-induced loss of F-actin fibers and focal adhesions and enhances active β1-integrin levels. (B) Graphs showing the effect of pyr on the number of F-actin fibers per cell and the number of vinculin spots per cell under each treatment condition. Data shown are means 6 SEMs per cell from three replicate wells (n=500-1000 cells per well). **P, 0.01; ***P, 0.001; ****P, 0.001. (C) Representative fluorescence images of murine podocytes after various treatments and after staining with phalloidin and antiactive β1 antibody. […] (D) Representative fluorescence images of human podocytes after various treatments as shown. […] Representative images (left panel) and a bar graph (right panel) showing confocal microscopy-based quantitation of the number of migrating podocytes in a scratch wound-healing assay Lines represent the wound margins at the beginning of the experiment (0 hours). […]
Integrin-α3β1 is highly expressed in podocytes and primarily binds to the GBM-expressed ligand laminin, thereby mediating stable adhesion of podocytes to the GBM. […] Given that pyrintegrin affects integrin-β1, (Xu et al., PNAS, 2010.) we quantified the level of β1 in treated cells. […]

mouse podocytes = test: Scratch, wound-healing assay (podocyte migration); format: cell-based; conditions: PAN or LPS treatment, cotreatment, 48 hours
Method: The effect of identified novel compounds on podocyte migration was assessed using a classic scratch, wound-healing assay as described. (Mathieson, Nat Rev Nephrol, 2012.) Differentiated mouse podocytes per well were seeded overnight in type-I collagen coated wells of a 24 well plate. Each well was subsequently scratched using a sterile 200 μI pipette tip, washed and placed into fresh culture medium. Cells in wells were also treated with PAN, LPS, pyr or a combination, as described in the text. After 48 h, cells were fixed with 2% paraformaldehyde and stained with DAPI. Images of cells near scratched surfaces and their DAPI-stained nuclei were acquired using a 10× objective using a Zeiss Axio Observer D1 microscope (Carl Zeiss Group, Hartford, Conn.) and analyzed using ImageJ software (NIH). Images using transmitted light were also acquired at the beginning and the end of the experiment and were used to align images of pre- and post-treated cells for counting cells that had migrated into similar sized fields. The data shown represent the mean±SEM of three independent experiments.
Next, we assessed the efficacy of this small molecule in a functional assay. In vitro, PAN- or LPS-mediated injury promotes directional migration and wound closure by podocytes in a scratch wound-healing assay.

SD rats = test: PAN-induced nephropathy in rats; format: in vivo, rat; conditions: PAN 150 mg/kg i.v., pyrintegrin 10 mg/kg daily for 14 days
Method: The induction of nephropathy in male wild type SD rats (n=6 per group) by PAN injection was performed as described. (Reiser et al., J Clin Invest, 2004; Wei et al., Nature Medicine, 2008; Nakamura et al., Lab Invest, 1991.) Briefly, 5 week old male rats were intravenously injected with PAN (150 mg/kg, in water) and treatment with vehicle or pyrintegrin was started on the same day. Animals in the vehicle group were administered saline-based vehicle solution (3.3% DMSO and 5% Cremaphor EL) intraperitoneally daily for 14 days. Animals in the treatment group were treated with pyrintegrin (10 mg/kg, 3.3% DMSO and 5% Cremaphor EL) in the saline based solution daily for 14 days. Spot urine was collected from animals for measurement of albuminuria as mg albumin per mg creatinine. (Faul et al., Nat Med, 2008) Results are expressed as mean±SEM.
Low-dose LPS decreases β1 integrin activation in podocytes and causes podocyte damage and proteinuria in mice. (Yu et al., N Engl J Med, 2013) Here, we used this model to test whether pyrintegrin, by preserving active β1 integrin in podocytes, is able to suppress podocyte FP effacement and the development of proteinuria in live animals. […] Given that pyrintegrin protected podocytes from PAN-induced damage in vitro, we also tested the efficacy of pyrintegrin in a PAN injury model.

T1 sequence (P05556 21-798): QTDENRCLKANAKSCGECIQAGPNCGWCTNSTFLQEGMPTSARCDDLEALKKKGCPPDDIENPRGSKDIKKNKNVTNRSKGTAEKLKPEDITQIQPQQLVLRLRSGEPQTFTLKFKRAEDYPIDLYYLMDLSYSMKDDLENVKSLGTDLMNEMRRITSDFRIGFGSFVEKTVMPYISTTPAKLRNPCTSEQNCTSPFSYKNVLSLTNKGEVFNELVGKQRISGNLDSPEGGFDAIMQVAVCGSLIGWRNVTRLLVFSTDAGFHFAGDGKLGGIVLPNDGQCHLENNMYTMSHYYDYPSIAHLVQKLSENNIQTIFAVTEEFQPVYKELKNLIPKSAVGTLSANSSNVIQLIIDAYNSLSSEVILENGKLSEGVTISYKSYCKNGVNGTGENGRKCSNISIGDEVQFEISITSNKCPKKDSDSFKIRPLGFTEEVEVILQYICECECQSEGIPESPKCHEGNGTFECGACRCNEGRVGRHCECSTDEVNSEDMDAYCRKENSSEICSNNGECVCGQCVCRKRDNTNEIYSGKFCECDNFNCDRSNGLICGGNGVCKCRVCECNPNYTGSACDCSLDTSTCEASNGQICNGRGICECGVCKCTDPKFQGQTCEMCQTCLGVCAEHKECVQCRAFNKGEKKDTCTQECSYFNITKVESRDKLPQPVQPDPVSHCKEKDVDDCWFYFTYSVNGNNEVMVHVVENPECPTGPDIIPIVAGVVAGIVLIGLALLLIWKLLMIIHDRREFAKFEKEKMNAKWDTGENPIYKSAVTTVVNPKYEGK
T1 sequence (P26006 33-1051 partner): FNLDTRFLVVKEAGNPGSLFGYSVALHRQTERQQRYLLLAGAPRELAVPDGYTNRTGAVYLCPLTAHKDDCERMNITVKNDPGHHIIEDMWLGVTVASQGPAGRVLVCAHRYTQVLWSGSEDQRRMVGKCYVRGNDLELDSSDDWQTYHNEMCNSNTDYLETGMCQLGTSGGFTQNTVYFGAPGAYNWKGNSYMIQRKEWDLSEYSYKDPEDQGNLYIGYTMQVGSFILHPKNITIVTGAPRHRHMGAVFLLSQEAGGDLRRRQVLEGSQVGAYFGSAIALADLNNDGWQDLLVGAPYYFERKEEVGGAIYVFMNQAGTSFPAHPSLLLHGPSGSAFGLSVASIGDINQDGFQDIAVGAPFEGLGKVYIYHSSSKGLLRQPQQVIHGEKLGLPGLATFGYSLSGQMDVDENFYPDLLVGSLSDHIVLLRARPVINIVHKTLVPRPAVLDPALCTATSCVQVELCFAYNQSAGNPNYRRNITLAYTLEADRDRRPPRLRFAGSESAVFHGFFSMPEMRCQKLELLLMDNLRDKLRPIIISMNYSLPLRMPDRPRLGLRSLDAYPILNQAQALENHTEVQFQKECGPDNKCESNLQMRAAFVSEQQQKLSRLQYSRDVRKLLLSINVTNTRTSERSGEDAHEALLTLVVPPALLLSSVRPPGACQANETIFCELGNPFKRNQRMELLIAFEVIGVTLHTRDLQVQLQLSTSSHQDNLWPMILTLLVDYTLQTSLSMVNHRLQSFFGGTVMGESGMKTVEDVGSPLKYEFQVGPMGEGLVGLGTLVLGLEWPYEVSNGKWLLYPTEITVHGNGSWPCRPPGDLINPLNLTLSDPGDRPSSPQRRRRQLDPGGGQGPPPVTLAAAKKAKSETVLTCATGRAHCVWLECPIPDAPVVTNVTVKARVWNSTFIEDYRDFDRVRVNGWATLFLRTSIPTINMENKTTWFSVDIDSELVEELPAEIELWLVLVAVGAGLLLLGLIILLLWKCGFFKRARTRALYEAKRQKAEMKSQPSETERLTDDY

## O=S(=O)(NCC1CC1)c1ccc(Nc2nccc(N3CCCc4cc(O)ccc43)n2)cc1 [Pyrintegrin]
Human β1 integrin
  level of active β1 integrin in human podocytes (antibody 12G10): rescued
Mouse podocytes
  podocyte motility and wound closure: significantly reduced podocyte motility and wound closure
SD rats
  albuminuria caused by PAN-induced nephropathy: significantly reduced albuminuria
